These results are taken from patent US12054498B2, “Heteroaromatic macrocyclic ether chemotherapeutic agents” (Nuvalent, Inc., priority 2020, dated 2024).

Test [1] concerns the target T1, Ba/F3 cells TPM3-TRKA (Homo sapiens, UniProt P04629).
T1 construct: host or cells: Ba/F3 (RIKEN), retroviral pMSCV-puro; the other entry of the earlier key: TPM3 (P06753, Tropomyosin alpha-3 chain)
The test can be described thus: Ba/F3 cell proliferation assay, TPM3-TRKA. The format is cell-based. The settings on record: 72 hours, CellTiter-Glo, read-out: TPM3-NTRK1-wt IC50. A digest of the protocol:
(§1)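 Ba/F3 lines stably expressing the fusion (retroviral pMSCV-puro, selected by IL-3 withdrawal plus puromycin 0.8 μg/mL, monoclonal) were seeded at 1,000 cells/well, dosed next day with 3-fold compound dilutions, and incubated 72 hours. CellTiter-Glo luminescence gave percent inhibition; IC50 by four-parameter logistic fit.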
Background: ATP-based viability assays read luminescence as a measure of living cells.

In test [2] the target is T2, ROS1-wt (Homo sapiens, UniProt P08922).
T2 construct: purchased Carna 08-163
T2 sequence (P08922 1945-2222 limits assumed): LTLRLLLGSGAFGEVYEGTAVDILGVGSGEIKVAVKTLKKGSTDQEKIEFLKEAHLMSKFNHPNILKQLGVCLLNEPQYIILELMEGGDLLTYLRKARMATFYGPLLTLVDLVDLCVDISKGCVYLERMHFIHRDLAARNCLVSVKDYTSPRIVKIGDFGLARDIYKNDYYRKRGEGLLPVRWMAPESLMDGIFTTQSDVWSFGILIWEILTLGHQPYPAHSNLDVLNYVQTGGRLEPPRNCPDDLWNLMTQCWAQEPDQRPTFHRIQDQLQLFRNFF
The test can be described thus: Biochemical kinase assay, ROS1-wt kinase domain. To be noted: apparent inhibitory constant, Morrison equation; ATP 2 mM in substrate solution; read-out: ROS1-wt Ki^app. In outline: (§2)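 Compounds, as 100-fold DMSO stocks, were dispensed first, then substrate mix was added (ATP 2 mM, AQT0101 26 μM, in 50 mM HEPES pH 7.5/10 mM MgCl2). Reactions ran at 30 °C with fluorescence logged every 2 min over 120 min. Apparent inhibition constants came from fitting rates to Morrison's tight-binding equation.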

Test [3] has as its target T3, Ba/F3 cells CD74-ROS1 G2032R (Homo sapiens, UniProt P08922, G2032R).
T3 construct: fusion of the C-terminus of ROS1 with the N-terminus of various partner proteins; host or cells: Ba/F3 (RIKEN), retroviral pMSCV-puro; the other entry of the earlier key: CD74 (P04233, HLA class II histocompatibility antigen gamma chain)
Briefly: Ba/F3 cell proliferation assay, CD74-ROS1 G2032R. The format is cell-based. To be noted: 72 hours, CellTiter-Glo. A digest of the protocol: (§3)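 Viability read by CellTiter-Glo luminescence after 72 h exposure to 3-fold serial compound dilutions, four-parameter logistic fitting giving IC50.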

Test [4] has as its target T4, Ba/F3 cells CD74-ROS1 wild-type (wt) (Homo sapiens, UniProt P08922).
T4 construct: fusion of the C-terminus of ROS1 with the N-terminus of various partner proteins; host or cells: Ba/F3 (RIKEN), retroviral pMSCV-puro; the other entry of the earlier key: CD74 (P04233, HLA class II histocompatibility antigen gamma chain)
The test can be described thus: Ba/F3 cell proliferation assay, CD74-ROS1 wild-type. The format is cell-based. The settings on record: 72 hours, CellTiter-Glo. In outline: as §3

Test [5] concerns the target T5, Ba/F3 cells EML4-ALK wt (variant 1) (Homo sapiens, UniProt Q9UM73).
T5 construct: echinoderm microtubule-associated protein-like 4 (EML4) gene and the ALK tyrosine kinase domain; host or cells: Ba/F3 (RIKEN), retroviral pMSCV-puro; the other entry of the earlier key: EML4 (Q9HC35, Echinoderm microtubule-associated protein-like 4)
Briefly: Ba/F3 cell proliferation assay, EML4-ALK wt (variant 1). The format is cell-based. The settings on record: 72 hours, CellTiter-Glo. A digest of the protocol:
as §1

In test [6] the target is T6, ALK-wt (Homo sapiens, UniProt Q9UM73).
T6 construct: purchased Carna 08-518
T6 sequence (Q9UM73 1116-1392 limits assumed): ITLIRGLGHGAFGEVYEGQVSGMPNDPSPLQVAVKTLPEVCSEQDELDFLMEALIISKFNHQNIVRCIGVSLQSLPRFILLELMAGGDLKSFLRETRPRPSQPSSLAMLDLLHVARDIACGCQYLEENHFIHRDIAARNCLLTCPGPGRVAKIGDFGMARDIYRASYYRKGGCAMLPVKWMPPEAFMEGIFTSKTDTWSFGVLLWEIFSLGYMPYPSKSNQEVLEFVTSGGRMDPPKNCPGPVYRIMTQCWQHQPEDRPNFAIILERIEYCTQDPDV
Briefly: Biochemical kinase assay, ALK-wt kinase domain. The settings on record: apparent inhibitory constant, Morrison equation; ATP 2 mM in substrate solution; read-out: ALK-wt Ki^app. In outline: (§4)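 Apparent Ki values come from fitting initial reaction rates against inhibitor concentration to the Morrison equation. Rates were taken from the linear phase of fluorogenic substrate phosphorylation (AQT0101 for ALK and ROS1, AQT0104 for TRKA; 26 μM in substrate solution with 2 mM ATP), monitored at 485 nm over 120 min at 30° C.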

Test [7] deals with TPM3-NTRK1-wt IC50 / primary target IC50 (e.g. CD74-ROS1-wt). The test can be described thus: TRKA selectivity in Ba/F3 cells (TRKA potency divided by primary target potency). The format is cell-based. The settings on record: for TPM3-NTRK1-wt/CD74-ROS1-G2032R selectivity ratio: TRKA potency / CD74-ROS1-G2032R potency; for TPM3-NTRK1-wt/CD74-ROS1-wt selectivity ratio: TRKA potency / CD74-ROS1-wt potency; for TPM3-NTRK1-wt/EML4-ALK-L1196M-G1202R selectivity ratio: TRKA potency / EML4-ALK-L1196M-G1202R potency; for TPM3-NTRK1-wt/EML4-ALK-wt selectivity ratio: TRKA potency / EML4-ALK-wt potency. On the procedure: TRKA selectivity was calculated by dividing a compound's TRKA potency by its primary target potency (e.g. TPM3-NTRK1-wt IC50/CD74-ROS1-wt IC50). Compound selectivity can be interpreted by binning ratio values: bin A for very high selectivity, ratio >30-fold; bin B for high selectivity, ratio >10-fold; bin C for moderate selectivity, ratio ≥1; and bin D for low selectivity, ratio <1. […] (nd=not determined).

Test [8] addresses T7, Ba/F3 cells EML4-ALK L1196M/G1202R (variant 1) (Homo sapiens, UniProt Q9UM73, G1202R/L1196M).
T7 construct: echinoderm microtubule-associated protein-like 4 (EML4) gene and the ALK tyrosine kinase domain; host or cells: Ba/F3 (RIKEN), retroviral pMSCV-puro; the other entry of the earlier key: EML4 (Q9HC35, Echinoderm microtubule-associated protein-like 4)
Briefly: Ba/F3 cell proliferation assay, EML4-ALK L1196M/G1202R (variant 1). The format is cell-based. The settings on record: 72 hours, CellTiter-Glo. In outline: as §1

Test [9] deals with T8, ROS1-G2032R (Homo sapiens, UniProt P08922, G2032R).
T8 construct: purchased SignalChem R14-12BG
T8 sequence (P08922 1945-2222 G2032R limits assumed): as the sequence (P08922 1945-2222 limits assumed) above, with G88R counted along it
The test can be described thus: Biochemical kinase assay, ROS1-G2032R kinase domain. To be noted: apparent inhibitory constant, Morrison equation; ATP 2 mM in substrate solution; read-out: ROS1-G2032R Ki^app. A digest of the protocol:
as §2

For test [10], the target named is T9, ALK L1196M/G1202R (Homo sapiens, UniProt Q9UM73, G1202R/L1196M).
T9 construct: purchased SignalChem A19-12NG
T9 sequence (Q9UM73 1116-1392 L1196M/G1202R limits assumed): as the sequence (Q9UM73 1116-1392 limits assumed) above, with L81M, G87R counted along it
The test can be described thus: Biochemical kinase assay, ALK L1196M/G1202R kinase domain. To be noted: apparent inhibitory constant, Morrison equation; ATP 2 mM in substrate solution; read-out: ALK-L1196M-G1202R Ki^app. In outline: as §4

In test [11] the target is T10, TRKA-wt (Homo sapiens, UniProt P04629).
T10 construct: or TRKA-wt (1 nM, BPS Bio, 40280) kinase domains in buffer; purchased BPS Bio 40280
T10 sequence (P04629 510-781 limits assumed): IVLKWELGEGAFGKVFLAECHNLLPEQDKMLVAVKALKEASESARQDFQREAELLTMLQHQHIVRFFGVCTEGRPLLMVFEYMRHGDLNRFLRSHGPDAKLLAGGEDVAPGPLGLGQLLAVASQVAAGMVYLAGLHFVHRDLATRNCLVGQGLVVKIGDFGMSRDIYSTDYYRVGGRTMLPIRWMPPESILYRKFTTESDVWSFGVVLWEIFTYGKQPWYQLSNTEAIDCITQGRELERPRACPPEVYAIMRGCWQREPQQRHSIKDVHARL
The test can be described thus: Biochemical kinase assay, TRKA-wt kinase domain. The settings on record: apparent inhibitory constant, Morrison equation; ATP 2 mM in substrate solution; read-out: TRKA-wt Ki^app. In outline: as §4

pIC50, pKi: −log10 of the molar value.

T5 sequence (Q9UM73 with tags, fused parts or gaps): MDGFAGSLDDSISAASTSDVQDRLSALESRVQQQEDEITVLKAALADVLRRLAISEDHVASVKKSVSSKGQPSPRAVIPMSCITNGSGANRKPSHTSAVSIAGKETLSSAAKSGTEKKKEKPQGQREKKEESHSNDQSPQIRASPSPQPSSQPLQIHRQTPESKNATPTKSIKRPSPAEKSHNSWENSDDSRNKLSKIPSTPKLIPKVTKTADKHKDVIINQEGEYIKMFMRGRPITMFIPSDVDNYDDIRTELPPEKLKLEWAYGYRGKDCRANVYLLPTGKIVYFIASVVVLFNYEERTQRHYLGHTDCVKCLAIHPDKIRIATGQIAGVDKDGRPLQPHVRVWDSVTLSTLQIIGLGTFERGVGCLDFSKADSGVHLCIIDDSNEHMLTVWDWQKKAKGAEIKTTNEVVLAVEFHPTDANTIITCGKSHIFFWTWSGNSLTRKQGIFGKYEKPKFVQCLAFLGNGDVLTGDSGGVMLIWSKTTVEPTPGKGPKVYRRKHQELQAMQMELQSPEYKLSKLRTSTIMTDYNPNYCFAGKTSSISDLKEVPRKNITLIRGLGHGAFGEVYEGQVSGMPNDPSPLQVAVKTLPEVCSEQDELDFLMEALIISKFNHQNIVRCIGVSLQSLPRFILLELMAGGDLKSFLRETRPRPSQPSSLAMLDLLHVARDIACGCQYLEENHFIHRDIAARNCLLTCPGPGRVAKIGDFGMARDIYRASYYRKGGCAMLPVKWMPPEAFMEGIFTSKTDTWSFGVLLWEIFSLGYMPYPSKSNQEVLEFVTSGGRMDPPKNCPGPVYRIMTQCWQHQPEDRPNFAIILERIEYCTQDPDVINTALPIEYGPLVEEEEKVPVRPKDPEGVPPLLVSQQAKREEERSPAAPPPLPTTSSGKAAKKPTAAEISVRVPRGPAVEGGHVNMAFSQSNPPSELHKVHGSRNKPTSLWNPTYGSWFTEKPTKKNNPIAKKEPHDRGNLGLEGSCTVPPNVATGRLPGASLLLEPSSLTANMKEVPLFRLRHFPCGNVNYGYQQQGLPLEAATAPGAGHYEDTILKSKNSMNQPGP
T3 sequence (P08922 1883-2347 G2032R limits assumed): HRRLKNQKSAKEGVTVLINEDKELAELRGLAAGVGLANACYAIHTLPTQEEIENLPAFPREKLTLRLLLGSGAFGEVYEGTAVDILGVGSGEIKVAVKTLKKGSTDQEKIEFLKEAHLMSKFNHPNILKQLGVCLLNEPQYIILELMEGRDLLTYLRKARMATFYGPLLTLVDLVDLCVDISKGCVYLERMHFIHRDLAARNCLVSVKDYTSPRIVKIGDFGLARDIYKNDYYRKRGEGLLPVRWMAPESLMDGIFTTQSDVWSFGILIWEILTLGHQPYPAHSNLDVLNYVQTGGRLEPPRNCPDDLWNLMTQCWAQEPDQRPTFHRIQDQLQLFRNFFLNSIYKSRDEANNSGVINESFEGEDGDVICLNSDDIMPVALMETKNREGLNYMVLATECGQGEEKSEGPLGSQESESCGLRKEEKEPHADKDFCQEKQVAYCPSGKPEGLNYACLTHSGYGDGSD
T7 sequence (Q9UM73 with tags, fused parts or gaps L1196M/G1202R): as the sequence (Q9UM73 with tags, fused parts or gaps) above, with L635M, G641R counted along it
T1 sequence (P04629 510-796 limits assumed): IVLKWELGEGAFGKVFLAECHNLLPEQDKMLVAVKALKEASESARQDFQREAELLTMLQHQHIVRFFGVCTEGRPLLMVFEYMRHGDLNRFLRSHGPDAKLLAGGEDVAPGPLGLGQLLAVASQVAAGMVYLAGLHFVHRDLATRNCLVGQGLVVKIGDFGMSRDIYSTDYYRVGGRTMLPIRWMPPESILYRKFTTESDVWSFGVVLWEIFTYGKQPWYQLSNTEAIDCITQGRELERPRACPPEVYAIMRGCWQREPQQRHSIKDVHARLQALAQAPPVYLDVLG
T4 sequence (P08922 1883-2347 limits assumed): as the sequence (P08922 1883-2347 G2032R limits assumed) above, with R150G counted along it

For the compound `CCn1ncc2c1-c1cnc(N)c(c1)O[C@H](C)c1cc(F)ccc1-c1nc(C)nn1C2` [Example 33, (19R)-3-ethyl-16-fluoro-10,19-dimethyl-20-oxa-hexaazapentacyclo[19.3.1.0^2,^6.0^8,^12.0^13,^18]pentacosa-1(24),2(6),4,9,11,13,15,17,21(25),22-decaen-22-amine], the pIC50 is 6.30 to 7.30 in test [1]; 7.30 to 10.00 in [3]; 7.30 to 10.00 in test [4]; 7.30 to 10.00 in [5]; 6.30 to 7.30 in [8]. Moreover, the pKi is more than 7.30 in [2]; more than 7.30 in [6]; more than 7.30 in test [9]; more than 7.30 in test [10]; 6.30 to 7.30 in [11]. Moreover, the TPM3-NTRK1-wt/CD74-ROS1-G2032R selectivity ratio entry in [7] is on record as “A (bin A for very high selectivity, ratio >30-fold)”. The TPM3-NTRK1-wt/CD74-ROS1-wt selectivity ratio entry in [7] is listed as “A (bin A for very high selectivity, ratio >30-fold)”. For the same compound, the TPM3-NTRK1-wt/EML4-ALK-L1196M-G1202R selectivity ratio result in test [7] is recorded as “C (bin C for moderate selectivity, ratio ≥1)”. In test [7], the TPM3-NTRK1-wt/EML4-ALK-wt selectivity ratio entry was “A (bin A for very high selectivity, ratio >30-fold)”.
Consider `CCn1ncc2c1-c1cnc(N)c(c1)OC(C)c1cc(F)ccc1-c1cccnc1C2` (stereo not shown) [Example 34, 3-ethyl-17-fluoro-20-methyl-21-oxa-3,4,9,24-tetraazapentacyclo[20.3.1.0^2,^6.0^8,^13.0^14,^19]hexacosa-1(25),2(6),4,8(13),9,11,14,16,18,22(26),23-undecaen-23-amine], for which the pIC50 in [1] is 6.30 to 7.30; in [3], 7.30 to 10.00; in [4], 7.30 to 10.00; in test [5] it was 7.30 to 10.00; in [8], 7.30 to 10.00. The pKi in [2] is more than 7.30; in test [6], more than 7.30; in [9], more than 7.30; in test [10] it was more than 7.30; in test [11], 6.30 to 7.30. Further, in test [7], the TPM3-NTRK1-wt/CD74-ROS1-G2032R selectivity ratio result is given as “A (bin A for very high selectivity, ratio >30-fold)”. Further, in test [7], the TPM3-NTRK1-wt/CD74-ROS1-wt selectivity ratio result was “A (bin A for very high selectivity, ratio >30-fold)”. Further, the TPM3-NTRK1-wt/EML4-ALK-L1196M-G1202R selectivity ratio result in test [7] was “B (bin B for high selectivity, ratio >10-fold)”. Further, the TPM3-NTRK1-wt/EML4-ALK-wt selectivity ratio entry in [7] is given as “A (bin A for very high selectivity, ratio >30-fold)”.
Consider `CCn1ncc2c1-c1cnc(N)c(c1)O[C@H](C)c1cc(F)ccc1-c1ncnn1C2` [Example 35, (19R)-3-ethyl-16-fluoro-19-methyl-20-oxa-3,4,8,9,11,23-hexaazapentacyclo[19.3.1.0^2,^6.0^8,^12.0^13,^18]pentacosa-1(24),2(6),4,9,11,13,15,17,21(2 5),22-decaen-22-amine], for which the pIC50 in test [1] is less than 6.30; in test [3], 7.30 to 10.00; in test [4], 7.30 to 10.00; in test [5], 7.30 to 10.00; in [8] it was 6.30 to 7.30. Besides, the negative logarithm of the Ki (pKi) was more than 7.30 in [2]; more than 7.30 in [6]; more than 7.30 in [9]; more than 7.30 in test [10]; 6.30 to 7.30 in test [11]. Further, the TPM3-NTRK1-wt/CD74-ROS1-G2032R selectivity ratio entry in test [7] is given as “A (bin A for very high selectivity, ratio >30-fold)”. The TPM3-NTRK1-wt/CD74-ROS1-wt selectivity ratio result in test [7] is “A (bin A for very high selectivity, ratio >30-fold)”. Besides, the TPM3-NTRK1-wt/EML4-ALK-L1196M-G1202R selectivity ratio result in test [7] was “C (bin C for moderate selectivity, ratio ≥1)”. For the same compound, the TPM3-NTRK1-wt/EML4-ALK-wt selectivity ratio entry in [7] is “A (bin A for very high selectivity, ratio >30-fold)”.
On to `CCn1ncc2c1-c1cnc(N)c(c1)OC(C)c1cc(F)cnc1-c1ccnn1C2` (stereo not shown) [Example 37, 3-ethyl-16-fluoro-19-methyl-20-oxa-3,4,8,9,14,23-hexaazapentacyclo[19.3.1.0^2,^6.0^8,^12.0^13,^18]pentacosa-1(24),2(6),4,9,11,13,15,17,21(25),22-decaen-22-amine], for which the negative logarithm of the IC50 (pIC50) is less than 6.30 in test [1]; 7.30 to 10.00 in test [3]; 7.30 to 10.00 in test [4]; 7.30 to 10.00 in [5]; 6.30 to 7.30 in [8]. The pKi was more than 7.30 in test [2]; more than 7.30 in [6]; more than 7.30 in test [9]; 6.30 to 7.30 in test [10]; less than 6.30 in test [11]. The TPM3-NTRK1-wt/CD74-ROS1-G2032R selectivity ratio entry in [7] is “A (bin A for very high selectivity, ratio >30-fold)”. Further, in test [7], the TPM3-NTRK1-wt/CD74-ROS1-wt selectivity ratio result was “A (bin A for very high selectivity, ratio >30-fold)”. The TPM3-NTRK1-wt/EML4-ALK-L1196M-G1202R selectivity ratio entry in [7] is on record as “B (bin B for high selectivity, ratio >10-fold)”. Moreover, the TPM3-NTRK1-wt/EML4-ALK-wt selectivity ratio result in [7] is given as “A (bin A for very high selectivity, ratio >30-fold)”.
On to `CCn1ncc2c1-c1cnc(N)c(c1)O[C@H](C)c1cc(F)ccc1-n1ncnc1C2` [Example 38, (19R)-3-ethyl-16-fluoro-19-methyl-20-oxa-3,4,9,11,12,23-hexaazapentacyclo[19.3.1.0^2,^6.0^8,^12.0^13,^18]pentacosa-1(24),2(6),4,8,10,13,15,17,21(25),22-decaen-22-amine], for which the negative logarithm of the IC50 (pIC50) in test [1] was less than 6.30; in test [3], 7.30 to 10.00; in [4], 7.30 to 10.00; in test [5] it was 7.30 to 10.00; in test [8] it was 6.30 to 7.30. Moreover, the pKi in [2] is more than 7.30; in [6], more than 7.30; in [9], more than 7.30; in [10], more than 7.30; in test [11], 6.30 to 7.30. The TPM3-NTRK1-wt/CD74-ROS1-G2032R selectivity ratio entry in test [7] is “A (bin A for very high selectivity, ratio >30-fold)”. Besides, the TPM3-NTRK1-wt/CD74-ROS1-wt selectivity ratio entry in [7] was “A (bin A for very high selectivity, ratio >30-fold)”. The TPM3-NTRK1-wt/EML4-ALK-L1196M-G1202R selectivity ratio result in test [7] is “C (bin C for moderate selectivity, ratio ≥1)”. Further, the TPM3-NTRK1-wt/EML4-ALK-wt selectivity ratio result in [7] was “A (bin A for very high selectivity, ratio >30-fold)”.

A word on the pIC50: it is the negative decadic logarithm of the IC50, by convention in mol/L. As usually defined, the pKi is the negative decadic logarithm of the Ki, by convention in mol/L.
